In patent US8951529B2, “Methods of using small compounds to enhance myeloid derived suppressor cell function for treating autoimmune diseases” (Icahn School of Medicine at Mount Sinai, priority 2009, dated 2015):

What was measured:
[1] = tested on: normal CD115+ monocytes; test: Normal monocyte assay: Treg induction in co-culture with normal monocytes; assay type: cell-based, mouse; settings: monocytes:CD4 OTII TCR splenocytes 1:4, five days, FIG. 2
Excerpt: CD115+ MDSCs and normal CD115+ monocytes were isolated from the bone marrows of tumor-bearing and naive Balb/c mice, respectively, and were co-cultured with CD4 OTII TCR transgenic splenocytes at a ratio of 1:4 in the absence or presence of GA, SP600125, or both.
To verify whether the enhancement of suppressive activities (suppression of T-cell proliferation and Treg cell induction) by GA and SP600125 is specific to MDSCs, the Treg cell inducing activity of normal CD115+ monocytes from naive mice was analyzed in the presence of GA and SP600125.

[2] = tested on: Gr-1+CD115+ MDSCs; test: Cytokine production by IFN-γ stimulated MDSCs (ELISA); assay type: cell-based, mouse; settings: IFN-γ stimulation, 24 hours, FIG. 3A
Method: Sorted Gr-1+CD115+ MDSCs from tumor-bearing mice were stimulated with IFN-γ in the absence or presence of GA, SP600125, or both. Twenty-four hours after stimulation, culture supernatants were collected and the concentrations of IL-10, TGF-β, IL-6, and IL-23 were determined by ELISA (R&D Systems).
It was next determined whether GA, SP600125, or both exert an effect on cytokine production by MDSCs. Sorted Gr-1+CD115+ MDSCs from tumor-bearing mice were stimulated with IFN-γ in the absence or presence of GA, SP600125, or both. Twenty-four (24) hours after stimulation, culture supernatants were collected and the concentrations of IL-10, TGF-β, IL-6, and IL-23 were determined by ELISA (R&D Systems®). GA or SP600125 alone was capable of enhancing the secretion of IL-10 and TGF-β while decreasing IL-6 and IL-23 production by MDSCs in vitro (FIG. 3A).

[3] = tested on: Gr-1+CD115+ MDSCs; test: MDSC differentiation assay (flow cytometry); assay type: cell-based, mouse; settings: 24 hours culture, FIG. 4A
Excerpt: Gr-1+CD115+ MDSCs were sorted by MACS and cultured in the absence or presence of GA, SP600125, or both. Twenty-four hours later, viable cells were harvested and stained with anti-CD86, anti-CD80, anti-CD11c, anti-I-A, anti-F4/80, or isotype-matched control followed by flow cytometric analysis to assess MDSC differentiation.
To test whether differentiation of MDSCs can be inhibited or retarded by the treatment of GA, SP600125, or both, Gr-1+CD115+ MDSCs were sorted by MACS and cultured in the absence or presence of GA, SP600125, or both. Twenty-four (24) hours later, viable cells were harvested and stained with anti-CD86, anti-CD80, anti-CD11c, anti-I-A, anti-F4/80, or isotype-matched control followed by flow cytometric analysis. […] Treatment with GA or SP600125 impaired the spontaneous differentiation of MDSCs, as evidenced by the lower expressions of CD11c, MHC class II, co-stimulatory molecules, and F4/80.

[4] = tested on: Gr-1+CD115+ MDSCs; test: Prolongation of Treg cell inducing activity of pre-treated MDSCs; assay type: cell-based, mouse; settings: 96 hours pre-treatment, then 5 days co-culture, FIG. 4B
Method: It was further investigated whether the delay of MDSC differentiation correlated with the prolongation of the Treg cell inducing activity mediated by MDSCs. Purified Gr-1+CD115+ MDSCs from tumor-bearing mice were left non-treated or treated with SP600125, GA, or a combination of both for 0, 48, and 96 hours followed by co-culture with CD4 HA TCR transgenic for an additional 5 days. […] The percentages of Treg cell subpopulations were determined by flow cytometry.
In the absence of treatment with GA or SP00125, the Treg cell inducing activity of MDSCs gradually waned over the period of 4-day culture (FIG. 4B).

[5] = tested on: MLN T cells; test: MLN cell proliferation assay from IBD mice; assay type: in vivo, mouse; settings: +PHA, 72 hours, [3H]-thymidine, day 11, DSS-treated mice, FIG. 7
Method: On day 11 after IBD induction, mice were terminated, and MLN cells were isolated and cultured in the presence or absence of PHA. [3H]-thymidine was pulsed during the last 8 hours of 72-hour culture for the measurement of T cell proliferation.
To assess the proliferative capability of T cells from treated mice, on day 11 following IBD induction, splenocytes and […] lymph node (MLN) cells from treated mice were stimulated with (+PHA) or without PHA (˜) for 72 hours. [3H]-thymidine was pulsed during the last 8 hours of 72-hour culture. […] The percentage of Treg cells is defined as the percent cells that are stained positive for CD4, CD25, and intracellular Foxp3.

[6] = tested on: MDSCs; test: Treg induction by MDSCs with or without LPS; assay type: cell-based, mouse; settings: five days, FIG. 9A
Excerpt: Five days later, cells were harvested and stained with anti-CD4-FITC+anti-CD25-APC+anti-Foxp3-PE or isotype controls followed by flow cytometry.

[7] = tested on: CD115+ MDSCs; settings: FIG. 9B
Method: IL-10 and IFN-γ levels in the supernatant were measured by ELISA.

[8] = tested on: IRF-3; settings: MDSCs stimulated with LPS for 2 hours, FIG. 9C
Excerpt: Actin was used as a loading control. Primary antibodies were anti-NFκB, anti-phospho-IRF3 (pIRF3), and anti-β-actin (Cell Signaling Technologies, Danvers, Mass.).

[9] = tested on: MDSCs derived from TRIF KO mice; settings: OVA peptide, CD4 OVA TCR splenocytes, 5 days, FIG. 9D
Method: TRIF is upstream of IRF-3. MDSCs derived from wild type or TRIF KO mice were cultured in the presence of OVA peptide and CD4 OVA TCR transgenic splenocytes for 5 days. Cells were stained with primary antibody specific for Foxp3, CD4 and CD25 and analyzed by flow cytometry.

[10] = tested on: multiple sclerosis; settings: GA alone, Johnson et al. (1995); cited from earlier work

## L-glutamic acid polymer with L-alanine, L-lysine and L-tyrosine, acetate (salt) [GA]
[1]
  percentage of CD4+CD25+Foxp3+ Treg cells in the co-culture with normal monocytes: slightly increased
[2]
  IL-6 production by MDSCs: decreasing
  IL-23 production by MDSCs: decreasing
  secretion of IL-10 by MDSCs: enhancing
  secretion of TGF-β by MDSCs: enhancing
[3]
  spontaneous differentiation of MDSCs (CD11c, MHC class II, co-stimulatory molecules, F4/80): impaired
[4]
  Treg cell inducing activity of treated MDSCs on day 4: still maintained a significant Treg cell inducing activity
[5]
  T-cell proliferation of MLN cells: lower level
[6]; CD4+ HA TCR splenocytes
  Treg cell induction by MDSCs without LPS: 11.1%
[6]; LPS 100 ng/mL
  Treg cell induction by MDSCs with LPS: 5.31%
[7]; 100 ng/mL LPS, 30 hours, ELISA
  IFN-γ production induced by LPS in MDSCs: significantly reduced
[7]; with LPS
  IL-10 production by MDSCs: favors IL-10 production
[8]
  IRF-3 activation induced by LPS: inhibition
[9]
  MDSC-mediated Treg cell induction in the absence of TRIF: cannot enhance
[10]
  efficacy for treating multiple sclerosis: only partially effective
